# Patent publication US20050170041A1, “Chewing gum compositions comprising monatin and methods for making same” (Cargill, Inc., priority 2003, published 2005)
# Residues, ends and D or L forms follow the SMILES beside them.
# How the values were obtained:
# [1] = Sweetness comparison procedure against sucrose reference solutions (sensory panel); type: in vivo; conditions: experienced sensory evaluators
# Method: The S,S stereoisomer of monatin is approximately 50-200 times sweeter than sucrose by weight. The R,R stereoisomer of monatin is approximately 2000-2400 times sweeter than sucrose by weight. The sweetness of the monatin is calculated using experienced sensory evaluators in a sweetness comparison procedure, where a test sweetener solution is matched for sweetness intensity against one of a series of reference solutions.
# Specifically, one may assess sweetness of a sweetener relative to sucrose by using a panel of trained sensory evaluators experienced in the sweetness estimation procedure. All samples (in same buffers) are served in duplicate at a temperature of 22° C.±1° C. Sample solutions may be prepared, for example, using a buffer comprising 0.16% (v/w) citric acid and 0.02% (v/w) sodium citrate at ˜pH 3.0. Test solutions, coded with 3 digit random number codes, are presented individually to panelists, in random order. Sucrose reference standards, ranging from 2.0-10.0% (w/v) sucrose, increasing in steps of 0.5% (w/v) sucrose are also provided. Panelists are asked to estimate sweetness by comparing the sweetness of the test solution to the sucrose standards. […]
# Sucrose equivalent value (SEV) (e.g., % sucrose), determined by the panel of trained sensory evaluators, is plotted as a function of monatin concentration to obtain a dose response curve. […]
# [2] = Sensory evaluation of sweeteners in iced tea; type: in vivo; conditions: 200 ml serving, aspartame 450 ppm, monatin 40 ppm, panel n=6; for Comments: sweetness and flavor profile: sucralose 170 ppm
# Method: Monatin formulations, including R,R monatin or R,R monatin/erythritol combinations, were assessed relative to other known sweeteners (aspartame and sucralose) in iced tea. The key sensory parameters assessed included sweetness quality, aftertaste, bitter taste and its aftertaste. Qualitative evaluation has been carried out.
# An ice tea formulation was developed to evaluate sweetener performance (Table 7).
# Sweeteners were added to tea at the following concentrations:
# The evaluation of ice tea drinks was carried out by a panel (n=6) of experienced sensory evaluators.
# [3] = Sensory stability of monatin and aspartame at pH 2.5, 3.0, 4.0 at 40° C.; type: physicochemical; conditions: for Rate constant (k) of sweetness loss: 40° C., pseudo-first order assumed; for Sweetness Retained: after 100 days storage at 40° C.; for SEV Aspartame / Retention of Aspartame Sweetness: stored at 40° C., aspartame 400 ppm
# Method: The sensory stability of monatin solutions prepared at pH 2.5, 3.0 and 4.0 and stored at 40° C. was monitored for 100 days. Loss of sweetness from these solutions was compared with the losses of sweetness from aspartame solutions prepared and stored under identical conditions.
# The sensory stability of monatin (8% SEV, ˜55 ppm, synthetic blend containing approximately 96% of the 2R,4R/2S, 4S enantiometric pair and 4% of the 2R,4S/2S,4R enantiometric pair) in phosphate/citrate buffers having a pH of 2.5, 3.0, and 4.0 was examined after storage at 40° C. The stability of monatin was compared to that of aspartame (400 ppm) in the same buffers. Three sucrose reference solutions were prepared in the same phosphate/citrate buffers as the monatin and aspartame solutions. All prepared solutions were stored in the dark.
# The sweetness of each sweetener relative to sucrose was assessed in duplicate by a panel (n=8) of trained sensory evaluators experienced in the sweetness estimation procedure. All samples (in the same buffers) were served in duplicate at a temperature of 22° C.±1° C. Monatin (test) solutions, coded with 3 digit random number codes were presented individually to panelists, in random order. Sucrose reference standards, ranging from 4.0-10.0% (w/v) sucrose, increasing in steps of 0.5% (w/v) sucrose were also provided. Panelists were asked to estimate sweetness by comparing the sweetness of the test solution to the sucrose standards. This was carried out by taking 3 sips of the test solution, followed by a sip of water, followed by 3 sips of sucrose standard followed by a sip of water, etc. Panelists were encouraged to estimate the sweetness to one decimal place, e.g., 6.8, 8.5. A five minute rest period was imposed between evaluating the test solutions. Panelists were also asked to rinse well and eat a cracker to reduce any potential carry over effects.
# If a pseudo-first order breakdown reaction is assumed, a plot of logn percentage retention versus time (logn % RTN v. t) allows estimation of the half-life (t½) and rate constant (k) of sweetness loss under any given set of conditions. In so doing, the kinetics of monatin and aspartame sweetness loss may be summarized as follows in Table 14.
smiles,measurement,setting,value
"N[C@@H](C[C@@](O)(Cc1c[nH]c2ccccc12)C(=O)O)C(=O)O (single isomer, unassigned) [R,R stereoisomer of monatin]",sweetness relative to sucrose by weight,[1],2000-2400 times sweeter than sucrose
"NC(CC(O)(Cc1c[nH]c2ccccc12)C(=O)O)C(=O)O (single isomer, unassigned) [S,S stereoisomer of monatin]",sweetness relative to sucrose by weight,[1],50-200 times sweeter than sucrose
"COC(=O)[C@H](Cc1ccccc1)NC(=O)[C@@H](N)CC(=O)O [Aspartame, reference compound] (H-Asp-Phe-OMe)",Comments: flavor enhancement (lemon flavor notes),[2],tea flavor. No evidence of flavor
same,Comments: sweetness and flavor profile,[2],Good temporal characteristics although
same,Rate constant (k) of sweetness loss,[3]; pH 2.5,0.013 day⁻¹
same,Sweetness Retained,[3]; pH 2.5,11%
same,SEV Aspartame,"[3]; pH 2.5, day 0",7.34 % sucrose
same,Retention of Aspartame Sweetness,"[3]; pH 2.5, day 1",94.0%
same,SEV Aspartame,"[3]; pH 2.5, day 1",6.90 % sucrose
same,Retention of Aspartame Sweetness,"[3]; pH 2.5, day 2",92.6%
same,SEV Aspartame,"[3]; pH 2.5, day 2",6.80 % sucrose
same,Retention of Aspartame Sweetness,"[3]; pH 2.5, day 3",89.9%
same,SEV Aspartame,"[3]; pH 2.5, day 3",6.60 % sucrose
same,Retention of Aspartame Sweetness,"[3]; pH 2.5, day 4",85.7%
same,SEV Aspartame,"[3]; pH 2.5, day 4",6.29 % sucrose
same,Retention of Aspartame Sweetness,"[3]; pH 2.5, day 7",81.9%
same,SEV Aspartame,"[3]; pH 2.5, day 7",6.01 % sucrose
same,Retention of Aspartame Sweetness,"[3]; pH 2.5, day 8",81.5%
same,SEV Aspartame,"[3]; pH 2.5, day 8",5.98 % sucrose
same,Retention of Aspartame Sweetness,"[3]; pH 2.5, day 9",81.3%
same,SEV Aspartame,"[3]; pH 2.5, day 9",5.97 % sucrose
same,Retention of Aspartame Sweetness,"[3]; pH 2.5, day 11",79.8%
same,SEV Aspartame,"[3]; pH 2.5, day 11",5.86 % sucrose
same,Retention of Aspartame Sweetness,"[3]; pH 2.5, day 50",57.1%
same,SEV Aspartame,"[3]; pH 2.5, day 50",4.19 % sucrose
same,Retention of Aspartame Sweetness,"[3]; pH 2.5, day 100",10.9%
same,SEV Aspartame,"[3]; pH 2.5, day 100",0.80 % sucrose
same,Rate constant (k) of sweetness loss,[3]; pH 3.0,0.009 day⁻¹
same,Sweetness Retained,[3]; pH 3.0,31%
same,SEV Aspartame,"[3]; pH 3.0, day 0",7.15 % sucrose
same,Retention of Aspartame Sweetness,"[3]; pH 3.0, day 1",96.5%
same,SEV Aspartame,"[3]; pH 3.0, day 1",6.90 % sucrose
same,Retention of Aspartame Sweetness,"[3]; pH 3.0, day 2",96.1%
same,SEV Aspartame,"[3]; pH 3.0, day 2",6.87 % sucrose
same,Retention of Aspartame Sweetness,"[3]; pH 3.0, day 3",92.3%
same,SEV Aspartame,"[3]; pH 3.0, day 3",6.60 % sucrose
same,Retention of Aspartame Sweetness,"[3]; pH 3.0, day 4",89.9%
same,SEV Aspartame,"[3]; pH 3.0, day 4",6.43 % sucrose
same,Retention of Aspartame Sweetness,"[3]; pH 3.0, day 7",86.3%
same,SEV Aspartame,"[3]; pH 3.0, day 7",6.17 % sucrose
same,Retention of Aspartame Sweetness,"[3]; pH 3.0, day 8",82.9%
same,SEV Aspartame,"[3]; pH 3.0, day 8",5.93 % sucrose
same,Retention of Aspartame Sweetness,"[3]; pH 3.0, day 9",83.1%
same,SEV Aspartame,"[3]; pH 3.0, day 9",5.94 % sucrose
same,Retention of Aspartame Sweetness,"[3]; pH 3.0, day 11",81.5%
same,SEV Aspartame,"[3]; pH 3.0, day 11",5.83 % sucrose
same,Retention of Aspartame Sweetness,"[3]; pH 3.0, day 50",65.9%
same,SEV Aspartame,"[3]; pH 3.0, day 50",4.71 % sucrose
same,Retention of Aspartame Sweetness,"[3]; pH 3.0, day 100",30.8%
same,SEV Aspartame,"[3]; pH 3.0, day 100",2.20 % sucrose
same,Rate constant (k) of sweetness loss,[3]; pH 4.0,0.005 day⁻¹
same,Sweetness Retained,[3]; pH 4.0,58%
same,SEV Aspartame,"[3]; pH 4.0, day 0",7.10 % sucrose
same,Retention of Aspartame Sweetness,"[3]; pH 4.0, day 3",95.1%
same,SEV Aspartame,"[3]; pH 4.0, day 3",6.75 % sucrose
same,Retention of Aspartame Sweetness,"[3]; pH 4.0, day 8",87.8%
same,SEV Aspartame,"[3]; pH 4.0, day 8",6.23 % sucrose
same,Retention of Aspartame Sweetness,"[3]; pH 4.0, day 11",84.8%
same,SEV Aspartame,"[3]; pH 4.0, day 11",6.02 % sucrose
same,Retention of Aspartame Sweetness,"[3]; pH 4.0, day 17",81.0%
same,SEV Aspartame,"[3]; pH 4.0, day 17",5.75 % sucrose
same,Retention of Aspartame Sweetness,"[3]; pH 4.0, day 24",82.4%
same,SEV Aspartame,"[3]; pH 4.0, day 24",5.85 % sucrose
same,Retention of Aspartame Sweetness,"[3]; pH 4.0, day 50",74.5%
same,SEV Aspartame,"[3]; pH 4.0, day 50",5.29 % sucrose
same,Retention of Aspartame Sweetness,"[3]; pH 4.0, day 100",57.7%
same,SEV Aspartame,"[3]; pH 4.0, day 100",4.10 % sucrose
OC[C@H]1O[C@H](O[C@]2(CCl)O[C@H](CCl)[C@@H](O)[C@@H]2O)[C@H](O)[C@@H](O)[C@H]1Cl [Sucralose],Comments: sweetness and flavor profile,[2],Delay in sweetness onset means first
